Assay results published in patent US6372894B1, “Cycolalkylated B-glucoside” (Nihon Shokuhin Kako Co., Ltd., priority 1999, dated 2002).

Tests used:
gypsophila cut flower = experiment: Aromatic substance formation inhibition effect in cut flowers, organoleptic test (gypsophila); type: in vivo; details: 0.13% (w/v, 5 mM) aqueous solution, after one day, all of ten expert panelists, versus water
Description: (§1) A 0.13% (w/v, 5 mM) aqueous solution of the CPEM-β-Glc obtained in Example 2 was prepared. The obtained aqueous solution (300 ml) was introduced into an Erlenmeyer flask, and lily, chrysanthemum, and gypsophila were put into it one for each. On the other hand, as control, the flowers were similarly put into water without the CPEM-β-Glc. After 1, 2 and 4 days, organoleptic test was performed by ten expert panelists as for the aroma emitted from these cut flowers.

[1] = target: β-glucosidase derived from Aspergillus niger (Aspergillus niger, UniProt A2RAL4); experiment: β-Glucosidase inhibition test (pNP-β-Glc), A. niger enzyme; type: biochemical
Description: (§2) β-Glucosidase inhibition test was performed as follows. 10 mM p-nitrophenyl-p-glucoside (100 μl, abbreviated as pNP-β-Glc hereinafter), 1 M sodium acetate buffer (pH 5.0, 50 μl), pure-water, and 100 mM inhibitor (10 μl) were taken into a short test tube so that the mixture should have a total volume of 800 μl, and preincubated at 40° C. for 5 minutes. After the incubation, the obtained mixture was added with 50 μl of enzyme solution diluted to a suitable concentration, and allowed to react at 40° C. After 10 minutes, the enzyme was inactivated by adding 500 μl of 1 M sodium carbonate to the obtained reaction mixture, and the absorbance at 405 nm was measured and used for calculation of the amount of free p-nitrophenol. As the inhibitor, cyclopropylmethyl-β-glucoside (CPAM-β-Glc), cyclopentyl-β-glucoside (CPE-β-Glc), and cyclopentylmethyl-β-glucoside (CPEM-β-Glc) all prepared by the methods of Examples 1 and 2 were used. As the β-glucosidase, chromatographically purified preparations derived from Aspergillus niger, Trichoderma viride, and Almond (all from SIGMA) were used.

[2] = target: β-glucosidase derived from Trichoderma viride (Trichoderma viride, UniProt Q6UJY0); experiment: β-Glucosidase inhibition test (pNP-β-Glc), T. viride enzyme; type: biochemical
Description: as §2

chrysanthemum cut flower = experiment: Aromatic substance formation inhibition effect in cut flowers, organoleptic test (chrysanthemum); type: in vivo; details: 0.13% (w/v, 5 mM) aqueous solution, after one day, all of ten expert panelists, versus water
Description: as §1

lily cut flower = experiment: Aromatic substance formation inhibition effect in cut flowers, organoleptic test (lily); type: in vivo; details: 0.13% (w/v, 5 mM) aqueous solution, after one day, all of ten expert panelists, versus water
Description: as §1

[3] = test system: β-glucosidase derived from Almond; experiment: β-Glucosidase inhibition test (pNP-β-Glc), almond enzyme; type: biochemical; details: inhibitor concentration of 1.25 mM
Description: as §2

[4] = test system: pNP-β-Glc activity of rose petal crude enzyme solution; experiment: Inhibition test for rose crude enzyme; type: biochemical, Rosa gybrida CV. Wendy
Description: as §2
Only petals (about 70 g) were collected from about ten marketed roses (variety; Rosa gybrida CV. Wendy), added with acetone (500 ml) cooled to −20° C., and pulverized by a homogenizer while cooled with dry ice. The obtained pulverized mixture was filtered through a Buchner funnel put with a No. 2 filter paper sheet, and sufficiently washed with acetone at −20° C. The obtained filtrate was dried in a desiccator under reduced pressure (room temperature, 3 hours) to obtain 6 g of crude enzyme powder. This powder was added to 100 mM sodium phosphate buffer (pH 7.0, 120 ml) and stirred at 4° C. for 3 hours, and the insoluble matter was removed by centrifugation. The filtrate was subjected to ultrafiltration utilizing an ultrafiltration membrane PM-10 (Amicon) to finally afford 15 ml of crude enzyme solution.
In the same manner as in Example 3, the inhibition activity of the CPEM-β-Glc obtained in Example 2 for the pNP-β-Glc activity of the above crude enzyme solution was measured. […]

[5] = test system: lily, chrysanthemum, and gypsophila cut flowers; experiment: Freshness of cut flowers in the aroma test; type: in vivo; details: 0.13% (w/v, 5 mM) aqueous solution
Description: as §1

SMILES: OCC1OC(OCC2CCCC2)C(O)C(O)C1O (stereo not drawn) [CPEM-β-Glc, cyclopentylmethyl-β-glucoside]
- aroma emitted from cut flowers, organoleptic test (gypsophila cut flower): distinctly reduced
- inhibition of β-glucosidase, in words ([1]; A. niger enzyme, inhibitor concentration of 1.25 mM): relatively weak inhibition
- IC50 ([1]; A. niger β-glucosidase, concentration varied from 0 to 5 mM, read-out: 50% inhibition concentration): 12.6 mM
- inhibition of β-glucosidase, in words ([2]; T. viride enzyme, inhibitor concentration of 1.25 mM): no inhibition
- IC50 ([2]; T. viride β-glucosidase, concentration varied from 0 to 5 mM, read-out: 50% inhibition concentration): 11.5 mM
- aroma emitted from cut flowers, organoleptic test (chrysanthemum cut flower): distinctly reduced
- aroma emitted from cut flowers, organoleptic test (lily cut flower): distinctly reduced
- inhibition of β-glucosidase, in words [3]: strongly inhibited
- inhibition activity ([4]; at 3 mM): about 50%
- inhibition activity ([4]; at 4 mM): about 70%
- inhibition activity ([4]; at 5 mM): about 90%
- freshness of the cut flowers, added versus not added [5]: No difference in freshness
